Test results as given in patent publication US20180304191A1, “METHOD FOR THE SELECTIVE REMOVAL OF HYDROGEN SULFIDE” (BASF SE, priority 2015, published 2018).

Columns and labels:
[1] = Dynamic viscosity (Anton Paar Stabinger SVM3000 viscometer); assay type: physicochemical
Method: The dynamic viscosities of various compounds were measured in a viscometer (Anton Paar Stabinger SVM3000 viscometer).
In addition, the dynamic viscosities of various absorbents (without acid gas loading) were measured in the same instrument.

[2] = pKA determination by titration with hydrochloric acid (pH at half-equivalence); settings: for pKA1: 1st dissociation stage; for pKA2: 2nd dissociation stage
Text: Measurement was accomplished using a thermostated closed jacketed vessel in which the liquid was blanketed with nitrogen. The Hamilton Polylite Plus 120 pH electrode was used, which was calibrated with pH 7 and pH 12 buffer solutions.

[3] = Thermal stability (decomposition level of the amine in acid-gas-laden absorbent); assay type: physicochemical; settings: 160° C., 125 h, 30% by weight amine solution
Method: A Hastelloy cylinder (10 mL) was initially charged with the absorbent (30% by weight amine solution, 8 mL) and the cylinder was closed. […] The acid gas loading of the solutions was 20 m^3 (STP)/tsolvent of CO2 and 20 m^3 (STP)/tsolvent of H2S. The decomposition level of the amines was calculated from the amine concentration measured by gas chromatography before and after the experiment.

[4] = absorbent: amine 30% by wt. in EG 70% by wt., without acid gas loading
[5] = absorbent: amine 30% by wt. in sulfolane 70% by wt., without acid gas loading

Dynamic viscosity [1, 4] [mPa · s] | Dynamic viscosity ([1]; amine compound itself) [mPa · s] | Dynamic viscosity [1, 5] [mPa · s] | pKA1 ([2]; 0.01 mol/kg amine, 20° C.) | pKA2 ([2]; 0.01 mol/kg amine, 20° C.) | Thermal stability (comparison in words) [3] | ΔpKA1 (120-20° C.) ([2]; difference of pKA1 between 120° C. and 20° C.) | Structure (SMILES) | Dynamic viscosity ([1]; absorbent: amine 30% by wt. in TEG 70% by wt., without acid gas loading) [mPa · s] | pKA3 ([2]; 0.01 mol/kg amine, 20° C., 3rd dissociation stage)
25.3 | 1844 | – | – | – | – | – | CCC(N)(CO)CO [AEPD, 2-amino-2-ethylpropane-1,3-diol, reference compound] | – | –
12.3 | 0.9 | 3.6 | 9.7 | 8.2 | – | – | CN(C)CCOCCN(C)C [BDMAEE, bis(2-(N,N-dimethylamino)ethyl) ether] | – | –
17.2 | 16.9 | – | – | – | – | – | CC(C)(C)NCCOCCO [TBAEE, 2-(2-tert-butylaminoethoxy)ethanol, reference compound] | – | –
– | 1.5 | 5.5 | 10.4 | 8.4 | higher thermal stability than MDEA | 2.4 | CN(C)CCOCCNC(C)(C)C [TBAEEDA, 2-(2-tert-butylaminoethoxy)ethyl-N,N-dimethylamine] | – | –

Structure (SMILES) | Dynamic viscosity [1, 4] [mPa · s] | Dynamic viscosity ([1]; amine compound itself) [mPa · s] | Dynamic viscosity [1, 5] [mPa · s] | pKA1 ([2]; 0.01 mol/kg amine, 20° C.) | pKA2 ([2]; 0.01 mol/kg amine, 20° C.) | Thermal stability (comparison in words) [3] | ΔpKA1 (120-20° C.) ([2]; difference of pKA1 between 120° C. and 20° C.) | Dynamic viscosity ([1]; absorbent: amine 30% by wt. in TEG 70% by wt., without acid gas loading) [mPa · s] | pKA3 ([2]; 0.01 mol/kg amine, 20° C., 3rd dissociation stage)
CN(C)CCN(C)CCN(C)C [PMDETA, pentamethyldiethylenetriamine] | – | 1.0 | – | 10.3 | 8.8 | – | – | 15.3 | 6.5
